Consider three compounds from ChEMBL document CHEMBL1143350, “Structure and activity of (2,8)-dicarba-(3,12)-cystino alpha-ImI, an alpha-conotoxin containing a nonreducible cystine analogue” (J Med Chem, 2009).

A short description of assay [1]: (§1) Antagonist activity at nAChR in nicotine-stimulated bovine adrenal chromaffin cells assessed as inhibition of adrenaline release preincubated for 5 mins before nicotine challenge by RP-HPLC. Particulars: Bos taurus. Format: functional.
Assay [2] is filed under the species Bos taurus. The assay is described as §1. It counts as functional.
Assay [3] deals with Neuronal acetylcholine receptor subunit alpha-7 (Rattus norvegicus) (UniProt Q05941). Kind of assay: Activation of rat alpha7 nAChR expressed in Xenopus laevis oocytes at 2.5 uM. Format: cell-based. To be noted: Oocyte.
Neuronal acetylcholine receptor subunit alpha-7 (Rattus norvegicus), sequence (Q05941 whole entry): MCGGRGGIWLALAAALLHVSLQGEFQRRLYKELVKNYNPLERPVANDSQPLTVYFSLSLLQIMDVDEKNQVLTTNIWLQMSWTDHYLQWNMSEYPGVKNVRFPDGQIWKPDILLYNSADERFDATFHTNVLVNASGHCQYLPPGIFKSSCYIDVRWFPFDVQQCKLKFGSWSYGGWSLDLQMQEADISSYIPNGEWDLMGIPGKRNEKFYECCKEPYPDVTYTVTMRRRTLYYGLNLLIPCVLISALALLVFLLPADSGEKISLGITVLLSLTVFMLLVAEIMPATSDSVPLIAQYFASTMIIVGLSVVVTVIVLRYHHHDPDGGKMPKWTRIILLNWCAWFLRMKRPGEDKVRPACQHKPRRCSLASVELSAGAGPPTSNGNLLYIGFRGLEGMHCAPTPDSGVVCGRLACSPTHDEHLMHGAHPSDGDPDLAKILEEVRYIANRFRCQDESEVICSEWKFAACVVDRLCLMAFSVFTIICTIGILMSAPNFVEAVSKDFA
Assay [4] shares this target. As to the kind of experiment: Antagonist activity at rat alpha7 nAChR expressed in Xenopus laevis oocytes assessed as inhibition of acetylcholine-evoked ion current at 2.5 uM treated 3 mins prior to acetylcholine challenge measured after 2 to 4 days by two-electrode voltage clamp method. Format: functional, cell-based. Set-up: scale not given: the % may be the effect or the level left. Particulars: Oocyte.

A short description of assay [5]: (§2) Antagonist activity at nAChR in nicotine-stimulated bovine adrenal chromaffin cells assessed as inhibition of noradrenaline release preincubated for 5 mins before nicotine challenge by RP-HPLC. Format: functional. To be noted: Bos taurus.
For assay [6], the species on record is Bos taurus. The description is as §2. Format: functional.

Calls of active or inactive are those of the source. The calls are words filed in the database; no cut-off is given here.

In general, IC50 refers to the point on the concentration scale where inhibition reaches its midpoint. Take `C[C@H](NC(=O)[C@H](CS)NC(=O)[C@H](CCCNC(=N)N)NC(=O)[C@@H]1CCCN1C(=O)[C@H](CC(=O)O)NC(=O)[C@H](CO)NC(=O)[C@H](CS)NC(=O)[C@H](CS)NC(=O)CN)C(=O)N[C@@H](Cc1c[nH]c2ccccc12)C(=O)N[C@@H](CCCNC(=N)N)C(=O)N[C@@H](CS)C(N)=O`: the IC50 is 1.12 µM in assay [1] and 0.87 µM in assay [5]. Also, the Activity entry in the assay filed under Bos taurus [2] was “Dose-dependent effect”; in assay [4], 68%; in the assay listed under Bos taurus [6] it was “Dose-dependent effect”. Further, the outcome in assay [3] was inactive.
Turning to `C=CN(CC(=O)NC1C/C=C/CC2NC(=O)[C@H](CCCNC(=N)N)NC(=O)[C@@H]3CCCN3C(=O)[C@H](CC(=O)O)NC(=O)[C@H](CO)NC(=O)[C@H](CSSC[C@@H](C(=O)O)NC(=O)[C@H](CCCNC(=N)N)NC(=O)[C@H](Cc3c[nH]c4ccccc34)NC(=O)[C@H](C)NC2=O)NC1=O)C(=O)CN` (single isomer, unassigned), the IC50 in assay [1] was 15 µM; in assay [5], 20 µM. In addition, the Activity result in the assay filed under Bos taurus [2] and in the assay listed under Bos taurus [6] was “Dose-dependent effect” throughout. Also, the outcome in assay [4] was inactive.
For `C=CN(CC(=O)NC1C/C=C\CC2NC(=O)[C@H](CCCNC(=N)N)NC(=O)[C@@H]3CCCN3C(=O)[C@H](CC(=O)O)NC(=O)[C@H](CO)NC(=O)[C@H](CSSC[C@@H](C(=O)O)NC(=O)[C@H](CCCNC(=N)N)NC(=O)[C@H](Cc3c[nH]c4ccccc34)NC(=O)[C@H](C)NC2=O)NC1=O)C(=O)CN` (single isomer, unassigned; isomer I), the IC50 was found to be 10 µM in assay [1] and 17 µM in assay [5]. Besides, the values for the Activity entry (in the assay filed under Bos taurus [2]; in assay [4]; in the assay filed under Bos taurus [6]) were “Dose-dependent effect”, 60% and “Dose-dependent effect”, respectively. The result in assay [3] was inactive.
